Results reported in patent US20250051355A1, “COMPOUNDS, COMPOSITIONS, AND METHODS” (ACONCAGUA BIO, INC., priority 2023, published 2025).

What follows are compounds tested against T1, human calcitonin receptor (CTR) and RAMP3 (AMY3) (Homo sapiens, UniProt O60896+P30988) (assay: Amylin Receptor cAMP Assay I). Conditions: COS-7/AMY3 cells, cAMP Hi-range Kit, read-out: Amylin Receptor cAMP Stimulation Activity: EC50.
Type: cell-based
Source text: Amylin Receptor cAMP Assay I
AMYRs are heterodimers of the class B calcitonin (CT) G-protein-coupled receptor (CTR) and receptor activity-modifying proteins (RAMPs). All three RAMPs can interact with the CTR and form AMY1, AMY2, AMY3 with RAMP1, RAMP2 and RAMP3, respectively. Like other class B1 GPCRs, the CT receptor family is canonically coupled to Gs-mediated cAMP production, and measurement of cAMP accumulation has been the primary assay used to determine peptide selectivity and potency.
To optimize functional activity directed toward Gas coupling, COS-7 cells were stably transfected with human calcitonin receptor (CTR) and RAMP3, simultaneously. 100×concentration of compound working solutions were prepared (Agilent Technologies Bravo) with 4-fold serial dilution in 384-well Echo LDV plate (Labcyte, Cat #LP-0200). 100 nL/well 100× concentration of compound working solutions were moved to 384-well white low volume plate (Greiner, Cat #784075) using Labcyte ECHO550. 1×10^5 cells/mL COS-7/CTR or COS-7/AMY3 (HD Biosciences) cell suspensions prepared with assay buffer [DPBS containing 0.5 mM IBMX (Sigma, Cat #15879) and 0.1% BSA (GENVIEW, Cat #FAO16-100 g)], 10 μL cell suspensions were added to each well of previous generated assay plate which already contains 100 nL compound at 100× concentration using ThermoFisher Multidrop Combi (1000 cells/well). Seal the plate and incubate at 37° C. with 5% CO2 for 30 min.
After incubation, the cAMP assay signal was generated using cAMP Hi-range Kit (Cisbio). 5 μL cAMP-d2 working solution was added to each well, followed by 5 μL Anti-cAMP antibody-cryptate working solution which was added to each well using ThermoFisher Multidrop Combi. The samples were then incubated at room temperature for 1 hour protected from light. the fluorescence was read at 665 and 615 nm with Reader PerkinElmer EnVision.

T1 sequence (O60896 24-148, one chain of several): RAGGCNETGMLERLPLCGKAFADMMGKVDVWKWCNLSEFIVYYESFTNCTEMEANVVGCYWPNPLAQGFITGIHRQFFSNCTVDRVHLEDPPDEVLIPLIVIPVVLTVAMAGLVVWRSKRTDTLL

Point of comparison: `Cc1nnc(-c2c(COC3CCOCC3)nc3c(c2-c2ccc(C(=O)NCc4ccc(F)c(F)c4)s2)C(=O)N2CCC[C@@H]32)o1` [Compound 26], EC50 1600 nM. Against it:
- Cc1nnc(-c2c(CCc3ccc(F)cc3)nc3c(c2-c2ccc(C(=O)N[C@@H]4CCc5ccccc54)s2)C(=O)NC[C@H]3C(C)C)o1 [Compound 16, N—((R)-2,3-dihydro-1H-inden-1-yl)-5-((R)-2-(4-fluorophenethyl)-8-isopropyl-3-(5-methyl-1,3,4-oxadiazol-2-yl)-5-oxo-5,6,7,8-tetrahydro-1,6-naphthyridin-4-yl)thiophene-2-carboxamide] — within 1.5-fold, 2370 nM
- Cc1cnc(-c2c(CCC3CCOCC3)nc3c(c2-c2cc4ccnc(NCc5cncc(F)c5)c4s2)C(=O)N2CCC[C@@H]32)o1 [Compound 75] — 4.4-fold lower, 360 nM
- Cc1nnc(-c2c(CCc3ccccc3)nc3c(c2-c2ccc(C(=O)NCc4ccc(F)c(F)c4)s2)C(=O)N2CCC[C@@H]32)o1 [Compound 5, (S)—N-(3,4-difluorobenzyl)-5-(3-(5-methyl-1,3,4-oxadiazol-2-yl)-5-oxo-2-phenethyl-7,8,9,9a-tetrahydro-5H-pyrido[2,3-a]pyrrolizin-4-yl)thiophene-2-carboxamide] — 24-fold lower, 67.5 nM
- Cc1nnc(-c2c(CCc3ccc(F)cn3)nc3c(c2-c2ccc(C(=O)NCc4ccc(F)c(F)c4)s2)C(=O)N2CCC[C@@H]32)o1 [Compound 8, (S)—N-(3,4-difluorobenzyl)-5-(2-(2-(5-fluoropyridin-2-yl)ethyl)-3-(5-methyl-1,3,4-oxadiazol-2-yl)-5-oxo-7,8,9,9a-tetrahydro-5H-pyrido[2,3-a]pyrrolizin-4-yl)thiophene-2-carboxamide] — 2.2-fold higher, 3590 nM
- Cc1cnc(-c2c(CCC3CCOCC3)nc3c(c2-c2ccc(C(=O)NCc4ccc(F)c(F)c4)s2)C(=O)N2CCC[C@@H]32)o1 [Compound 57] — 14-fold lower, 113 nM
- Cc1nnc(-c2c(CCc3ccc(F)cc3)nc3c(c2-c2ccc(C(=O)NCc4ccc(F)c(F)c4)s2)C(=O)N2CC[C@H](O)[C@@H]32)o1 [Compound 50, N-(3,4-difluorobenzyl)-5-((9S,9aR)-2-(4-fluorophenethyl)-9-hydroxy-3-(5-methyl-1,3,4-oxadiazol-2-yl)-5-oxo-7,8,9,9a-tetrahydro-5H-pyrido[2,3-a]pyrrolizin-4-yl)thiophene-2-carboxamide] — 12-fold lower, 129 nM
- Cc1nc(C)c(-c2c(CCc3ccc(F)cc3)nc3c(c2-c2ccc(C(=O)NCc4ccc(F)c(F)c4)s2)C(=O)N2CCC[C@@H]32)o1 [Compound 34, (S)—N-(3,4-difluorobenzyl)-5-(3-(2,4-dimethyloxazol-5-yl)-2-(4-fluorophenethyl)-5-oxo-7,8,9,9a-tetrahydro-5H-pyrido[2,3-a]pyrrolizin-4-yl)thiophene-2-carboxamide] — 78-fold lower, 20.5 nM
- CC(C)c1nnc(-c2c(CCc3ccc(F)cc3)nc3c(c2-c2ccc(C(=O)NCc4ccc(F)c(F)c4)s2)C(=O)N2CCC[C@@H]32)o1 [Compound 21] — 43-fold lower, 37 nM
- COc1cccc2c1CC[C@H]2NC(=O)c1ccc(-c2c3c(nc(CCc4ccc(F)cc4)c2-c2nnc(C)o2)[C@@H]2CCCN2C3=O)s1 [Compound 13, N—[(R)-4-methoxy-1-indanyl]-5-((2S)-11-[2-(p-fluorophenyl)ethyl]-10-(5-methyl-1,3,4-oxadiazol-2-yl)-7-oxo-6,12-diazatricyclo[6.4.0.0^2,6]dodeca-1(12),8,10-trien-9-yl}-2-thenamide] — 54-fold lower, 29.7 nM
- Cc1nnc(-c2c(CCc3cnn(C)c3)nc3c(c2-c2ccc(C(=O)NCc4ccc(F)c(F)c4)s2)C(=O)N2CCC[C@@H]32)o1 [Compound 43, (S)—N-(3,4-difluorobenzyl)-5-(3-(5-methyl-1,3,4-oxadiazol-2-yl)-2-(2-(1-methyl-1H-pyrazol-4-yl)ethyl)-5-oxo-7,8,9,9a-tetrahydro-5H-pyrido[2,3-a]pyrrolizin-4-yl)thiophene-2-carboxamide] — within 1.5-fold, 1880 nM
- Cc1ccc(CCc2nc3c(c(-c4ccc(C(=O)NCc5ccc(F)c(F)c5)s4)c2-c2nnc(C)o2)C(=O)N2CCC[C@@H]32)cn1 [Compound 22] — within 1.5-fold, 1130 nM
- COc1cccc2c1CC[C@H]2NC(=O)c1ccc(-c2c3c(nc(CCc4ccc(F)cc4)c2-c2nnc(C)o2)[C@H](C(C)C)NC3=O)s1 [Compound 3, N—[(R)-4-methoxy-1-indanyl]-5-{(S)-5-[2-(p-fluorophenyl)ethyl]-3-isopropyl-6-(5-methyl-1,3,4-oxadiazol-2-yl)-1-oxo-2,4-diaza-7-indanyl)-2-thenamide] — 23-fold lower, 70.2 nM
- Cc1nnc(-c2c(CCc3ccc(F)cc3)nc3c(c2-c2ccc(C(=O)NCc4ccc(F)c(F)c4)s2)C(=O)N2CCCC[C@@H]32)o1 [Compound 20] — 20-fold lower, 79 nM
- Cc1nnc(-c2c(CCC3CCC(F)(F)CC3)nc3c(c2-c2ccc(C(=O)NCc4ccc(F)c(F)c4)s2)C(=O)N2CCC[C@@H]32)o1 [Compound 27] — 9.2-fold lower, 174 nM
- Cc1cnc(-c2c(CCc3ccc(F)cc3)nc3c(c2-c2ccc(C(=O)NCc4ccc(F)c(F)c4)s2)S(=O)(=O)N2CCC[C@@H]32)o1 [Compound 24] — 20-fold lower, 80 nM
- CO[C@H]1C[C@@H](NC(=O)c2ccc(-c3c4c(nc(CCc5ccc(F)cc5)c3-c3nnc(C)o3)[C@@H]3CCCN3C4=O)s2)c2ccccc21 (stereo in doubt) [Compound 30, N-[(1R,3S)-3-methoxy-1-indanyl]-5-{(2S,6R)-11-[2-(p-fluorophenyl)ethyl]-10-(5-methyl-1,3,4-oxadiazol-2-yl)-7-oxo-6,12-diazatricyclo[6.4.0^2,^6]dodeca-1(8),9,11-trien-9-yl}-2-thenamide] — 25-fold lower, 63.5 nM
- Cc1nnc(-c2c(COc3ccc(F)cc3)nc3c(c2-c2ccc(C(=O)N[C@@H]4CCc5ncccc54)s2)C(=O)N2CCC[C@@H]32)o1 [Compound 32, N—[(R)-4-aza-1-indanyl]-5-{(2S)-11-[(p-fluorophenoxy)methyl]-10-(5-methyl-1,3,4-oxadiazol-2-yl)-7-oxo-6,12-diazatricyclo[6.4.0.0^2,6]dodeca-1(8),9,11-trien-9-yl}-2-thenamide] — 2.2-fold lower, 728 nM
- Cc1ncoc1-c1c(CCc2ccc(F)cc2)nc2c(c1-c1ccc(C(=O)NCc3ccc(F)c(F)c3)s1)C(=O)N1CCC[C@@H]21 [Compound 31, (S)—N-(3,4-difluorobenzyl)-5-(2-(4-fluorophenethyl)-3-(4-methyloxazol-5-yl)-5-oxo-7,8,9,9a-tetrahydro-5H-pyrido[2,3-a]pyrrolizin-4-yl)thiophene-2-carboxamide] — 39-fold lower, 41.2 nM
- Cc1nnc(-c2c(CC(F)c3ccc(F)cc3)nc3c(c2-c2ccc(C(=O)N[C@@H]4CCc5ccccc54)s2)C(=O)N2CCC[C@@H]32)o1 (some centres unmarked) [Compound 52] — 13-fold lower, 126 nM
- CO[C@H]1C[C@@H](Nc2nccc3cc(-c4c5c(nc(CCC6CCOCC6)c4-c4nnc(C)o4)[C@@H]4CCCN4C5=O)sc23)c2ccccc21 [Compound 74] — 1.9-fold lower, 860 nM

The compounds below were run against T2, human calcitonin receptor (CTR) (Homo sapiens, UniProt P30988) (assay: Calcitonin receptor (CTR) cAMP Assay). Conditions: COS7-human CTR Clone #2 cells, cAMP dynamic 2 kit; read-out: Calcitonin Receptor cAMP Stimulation Activity: EC50.
T2 construct: expressed in transfected cells; host or cells: COS-7 (COS7-human CTR Clone #2)
T2 sequence (P30988 25-474): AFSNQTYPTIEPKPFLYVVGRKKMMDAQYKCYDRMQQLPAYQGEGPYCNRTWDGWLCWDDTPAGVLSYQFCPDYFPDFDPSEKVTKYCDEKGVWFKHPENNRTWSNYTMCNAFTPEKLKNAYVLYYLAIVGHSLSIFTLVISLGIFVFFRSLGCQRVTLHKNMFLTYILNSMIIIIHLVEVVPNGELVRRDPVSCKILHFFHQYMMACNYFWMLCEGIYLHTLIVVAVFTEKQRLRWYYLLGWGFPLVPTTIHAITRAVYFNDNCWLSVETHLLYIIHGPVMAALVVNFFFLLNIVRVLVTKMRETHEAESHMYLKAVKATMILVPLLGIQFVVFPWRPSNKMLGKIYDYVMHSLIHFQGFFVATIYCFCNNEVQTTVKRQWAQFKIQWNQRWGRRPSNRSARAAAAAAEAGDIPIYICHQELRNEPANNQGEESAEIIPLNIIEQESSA
Type: cell-based
In short: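 COS-7 cells stably expressing human CTR (2000 cells/well) treated with 4-fold serially diluted compounds in HBSS/20 mM HEPES/0.5 mM IBMX/0.1% casein, 30 min at 37° C. cAMP quantified by HTRF (cAMP-d2 plus anti-cAMP cryptate, 1 h RT), fluorescence read at 665 and 615 nm.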

In the case of `Cc1nnc(-c2c(CCC3CCOCC3)nc3c(c2-c2cc4ccnc(Cc5ccc(F)c(F)c5)c4s2)S(=O)(=O)CC3C(C)C)o1` (centres unmarked) [Compound 138, 7-(7-[(3,4-difluorophenyl)methyl]-1-thia-6-aza-2-indenyl}-3-isopropyl-6-(5-methyl-1,3,4-oxadiazol-2-yl)-5-[2-(tetrahydro-2H-pyran-4-yl)ethyl]-1λ^6-thia-4-aza-1,1-indandione], the EC50 is reported as 115 nM.

Each compound was assayed against T1, human calcitonin receptor (CTR) and RAMP3 (AMY3) (assay: Amylin Receptor cAMP Assay II). Conditions: COS-7/AMY3 cells, cAMP dynamic 2 kit, read-out: Amylin Receptor cAMP Stimulation Activity: EC50.
Type: cell-based
In short: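 COS-7 cells stably co-expressing human CTR and RAMP3 (AMY3) were treated with 4-fold serially diluted compounds at 2000 cells/well in HBSS with 20 mM HEPES, 0.5 mM IBMX and 0.1% casein for 30 min at 37 °C. cAMP was measured by HTRF (cAMP-d2 plus anti-cAMP cryptate, 1 h at RT) with reads at 665/615 nm.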

`Cc1nnc(-c2c(CCC3CCOCC3)nc3c(c2-c2cc4ccnc(Cc5ccc(F)c(F)c5)c4s2)S(=O)(=O)CC3C(C)C)o1` (centres unmarked) [Compound 138, 7-(7-[(3,4-difluorophenyl)methyl]-1-thia-6-aza-2-indenyl}-3-isopropyl-6-(5-methyl-1,3,4-oxadiazol-2-yl)-5-[2-(tetrahydro-2H-pyran-4-yl)ethyl]-1λ^6-thia-4-aza-1,1-indandione] was tested, and the EC50 was 869 nM.
